Our source for the TGI and GI50 values is PubChem BioAssay (NCI).

Common to all, as to test: inhibition of tumour cell growth, NCI panel, 48 h
In test [1] the test system is KM12 colon.
The test system of test [2] is TK-10 renal.
Test [3] concerns HOP-62 NSCLC.
For test [4], the system named is OVCAR-3 ovarian.
In test [5] the test system is IGROV1 ovarian.
Test [6] deals with RPMI-8226 leukemia.
In test [7] the test system is HCC-2998 colon.
Test [8] relates to MCF7 breast.
The test system of test [9] is BT-549 breast.

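Where inhibition never reached the appropriate level, the endpoint shown equals the highest concentration tested. Otherwise, values were interpolated linearly from a five-concentration, 48-hour dose response in 96-well plates. The concentration for 50% growth inhibition is given as GI50. TGI: concentration producing complete growth inhibition.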

`N#C/C(=C\c1cccc(Cl)c1Cl)c1ccccc1`: the TGI in [1] was > 100 µM; in test [2], 91.6 µM; in [3] it was 60.9 µM; in test [4], > 92.6 µM; in test [5], 55.2 µM; in test [6], > 89.1 µM. For the same compound, the TGI in test [7] is > 100 µM.

Turning to `CN(C)CCn1c2c3ccccc3ccc2c2oc(=O)c3ccccc3c21`, the TGI in test [1] came to 37 µM; in [2], 25.1 µM; in [3], 28.3 µM; in test [4] it was 16.9 µM; in [5] it was 55.5 µM; in [6], 43.2 µM.

As for `Cc1cc2c(C)[nH]nc2c(C(=O)O)c1C`, the TGI in test [1], in test [3], in test [4], in test [5], in [6] and in test [7] was > 100 µM each time.

With `N[C@@H]1CCCC[C@@H]1N.O=P([O-])([O-])CN(CCN(CP(=O)([O-])[O-])CP(=O)([O-])[O-])CP(=O)([O-])[O-].[Pt+2]`, the GI50 in test [1], in test [2], in test [3], in test [4], in test [5] and in [6] was > 25 µM throughout. The GI50 in test [7] was > 25 µM. Moreover, the TGI in test [1], in test [2], in test [3], in test [4], in [5] and in test [6] was > 25 µM each time. Moreover, in test [7], the TGI was > 25 µM.

In the case of `Cc1ccc(Oc2ccc(C)cc2N)cc1`, the TGI in test [1], in test [2], in [3], in test [4], in test [5] and in test [6] was > 100 µM in each case. Also, the TGI in test [7] is > 100 µM.

In the case of `CC(C)(C)c1cc2ccc(C(N)=O)cc2c(=O)[nH]1`, the TGI in test [1], in test [2], in test [3], in [4], in [5] and in test [7] was > 100 µM in each case.

With `COC(=O)CC(c1ccccc1)C1(c2ccccc2)SCCS1` (stereo unspecified), the TGI in test [1], in test [2], in [3], in test [4], in test [5] and in test [6] was > 290 µM in each case. Moreover, the TGI in [7] is > 290 µM.

Take `O=C1C=CC(=O)c2nc3c(cc21)CCC3`: the TGI in [1] is > 100 µM; in test [2], 32.7 µM; in test [3], > 100 µM; in [4], 32 µM; in test [5], 34 µM; in [7], > 100 µM.

Regarding `COc1ccc(C)cc1-c1cc(Sc2ccccc2)c(-c2cc(C)ccc2OC)o1`, the TGI in [1], in test [2], in test [3], in [4], in test [5] and in test [6] was > 31.6 µM throughout. Besides, in test [7], the TGI is > 31.6 µM.

Take `O=S(=O)(N/N=C/c1cccc(/C=N/NS(=O)(=O)c2ccccc2)c1)c1ccccc1`: the TGI in [1], in test [2], in test [3], in [4], in test [5] and in test [6] was > 100 µM each time. Also, the TGI in test [7] is > 100 µM.

Take `CC(=O)NNc1nc(C)c(C(=O)/C=C/c2ccc(NC(C)=O)cc2)s1`: the TGI in [1], in test [2], in test [3], in test [4], in test [5] and in test [6] was > 100 µM in each case. Also, in test [7], the TGI is > 100 µM.

`C/C(CCn1[nH]c(=O)ccc1=O)=N\NC(=O)C(=O)NN`: the TGI in test [1], in test [2], in test [3], in [4], in test [5] and in test [6] was > 100 µM throughout. Moreover, in test [7], the TGI is > 100 µM.

In the case of `CCCCCC[C@@H]1CCC2C(CO)[C@@H](O)CC[C@@H]2C1` (stereo partly specified), the TGI in [1] came out at 36.2 µM; in test [3], 33 µM; in test [4], 29.3 µM; in test [5], 34.7 µM; in test [6], 63.2 µM; in [7] it was 37 µM.

Regarding `O=C1CN(c2cccc(Cl)c2)C(=O)CN1CCN1CC(=O)N(c2cccc(Cl)c2)CC1=O`, the TGI in test [1], in test [8], in [9], in [2], in [3] and in [4] was > 100 µM each time. Moreover, the TGI in test [5], in [6] and in test [7] was > 100 µM throughout.

`c1ccc(NCn2cnc3ccccc32)cc1`: the TGI was > 100 µM in test [1]; > 100 µM in test [2]; > 100 µM in test [4]; > 100 µM in [5]; 71.6 µM in test [6].

In the case of `CC(C)(C)c1cc2c(O)c3cccc4c(=O)c5cccc6c5-c(c34)c2c(c1)c6=O`, the TGI in test [1] was > 100 µM; in test [2], > 100 µM; in test [3], > 100 µM; in test [4] it was > 100 µM; in test [5], > 100 µM; in test [7], 0.0657 µM.

In the case of `NC(=O)c1ccccc1NC(=O)C(=O)C(C(=O)c1ccc(Cl)c(Cl)c1)C1OC(=O)c2ccccc21` (stereo unspecified), the TGI in test [1], in [3], in test [4], in [5], in [6] and in test [7] was > 100 µM throughout.

On to `Cc1cccc(C)c1NC(=O)CCCC(=O)C1/C(=N/NC(=O)CC#N)CCC/C1=N\NC(=O)CC#N` (stereo unspecified), for which the TGI in test [1], in test [2], in test [3], in [4], in test [5] and in test [6] was > 100 µM in each case. The TGI in test [7] is > 100 µM.
